Experimental data published in PMC8958506, “Site-Specific Isopeptide Bond Formation: A Powerful Tool for the Generation of Potent and Nontoxic Antimicrobial Peptides” (Journal of Medicinal Chemistry, 2022).
In brackets after ≈: the same amount, converted by molar mass. Starred links: 1 amine or outer side, 2 acyl side, 3 side chain; linkers in the order of their positions; H or OH if unused. Positions of bridges follow the written chain, without caps; N, C: chain ends. Non-standard residues stand in square brackets, D forms with d. Residues, ends and D or L forms follow the SMILES beside them. Groups on a side chain read outwards from the residue. Chains are numbered I, II in the order given. εLys = N[C@@H](CCCCN[*:1])C(=O)[*:2]

Experiments:
[1] = system: S. aureus ATCC 6538P; type: cell-based, Staphylococcus aureus; conditions: ATCC 6538, 24 h
Procedure: (§1) For our experiments, we used strains obtained from the American Type Culture Collection (ATCC), including P. aeruginosa PAO1, E. coli K12 parental type, S. aureus ATCC 6538P, and B. subtilis ATCC 6051. The MIC assays were performed as reported by Wiegand et al. using the broth microdilution method in 96-well round-bottom microplates.[35] The MIC was defined as the lowest concentration at which no bacterial growth was observed. Briefly, bacteria were inoculated into Mueller Hinton broth (MHB), cultured overnight at 37 °C, and transferred to a new MHB until the exponential phase of growth. The bacteria were diluted to 1 × 10^6 CFU/mL using MHB, and the peptides were prepared in double-distilled water (DDW) filtered over a 0.25 μm filter. To 50 μL of the MHB medium containing two fold serially diluted peptides with concentrations ranging from 1.56 to 50 μM were added 50 μL aliquots of the bacterial solution. The plates were incubated for 24 h at 37 °C. The positive and negative controls used were cultured without peptides (100% growth) and uninoculated MHB broth (0% growth). The bacterial growth inhibition was evaluated by measuring the absorbance at 600 nm using a microplate autoreader (SynersyMx, Biotek).

[2] = system: P. aeruginosa PAO1; type: cell-based, Pseudomonas aeruginosa; conditions: PAO1, 24 h
Procedure: as §1

[3] = system: B. subtilis ATCC 6051; type: cell-based, Bacillus subtilis; conditions: ATCC 6051, 24 h
Procedure: as §1

[4] = system: trypsin; conditions: trypsin 10 μg/mL, peptide 100 μM in PBS pH 7.4, after 30 min of incubation; RP-HPLC peak area relative to t0
Procedure: Proteolysis was measured by RP-HPLC using the following parameters, as reported.[33] Trypsin with a final concentration of 10 μg/mL was added to a solution of the peptides in PBS (pH 7.4) (100 μM). The reaction was monitored over time using reversed-phase HPLC (C18 reversed-phase Bio-Rad analytical column, 250 × 4 mm, 300 Å pore size, and 7 μm particle size). The column was eluted in 40 min using a linear gradient of 10–90% acetonitrile in water, both containing 0.1% trifluoroacetic acid (v/v), at a flow rate of 0.6 mL/min.

Compound | MIC [1] | MIC [2] | MIC [3] | peptide remaining intact with trypsin [4]
CC(C)C[C@H](NC(=O)[C@H](CC(C)C)NC(=O)[C@H](CCCCN)NC(=O)[C@H](CC(C)C)NC(=O)[C@H](CC(C)C)NC(=O)[C@H](CCCCN)NC(=O)[C@H](CCCCN)NC(=O)[C@H](CC(C)C)NC(=O)[C@H](CC(C)C)NC(=O)[C@H](CCCCN)NC(=O)[C@H](CCCCN)NC(=O)[C@H](CC(C)C)NC(=O)[C@H](CC(C)C)NC(=O)[C@@H](N)CCCCNC(=O)[C@@H](N)CC(C)C)C(N)=O [Amp1EP2] (H-K(Leu)LLKKLLKKLLKLL-NH2) | 1.56 µM (≈ 2.82 µg/mL) | 1.56 µM (≈ 2.82 µg/mL) | 1.56 µM (≈ 2.82 µg/mL) | 
CC(C)C[C@H](NC(=O)[C@H](CC(C)C)NC(=O)[C@H](CCCCN)NC(=O)[C@H](CC(C)C)NC(=O)[C@H](CC(C)C)NC(=O)[C@H](CCCCN)NC(=O)[C@H](CCCCN)NC(=O)[C@H](CC(C)C)NC(=O)[C@H](CC(C)C)NC(=O)[C@H](CCCCN)NC(=O)[C@@H](N)CCCCNC(=O)[C@H](CC(C)C)NC(=O)[C@H](CC(C)C)NC(=O)[C@H](CCCCN)NC(=O)[C@@H](N)CC(C)C)C(N)=O [Amp1EP5] (H-K([Leu-Leu-Lys-Leu])KLLKKLLKLL-NH2) | 3.12 µM (≈ 5.63 µg/mL) | 3.12 µM (≈ 5.63 µg/mL) | 1.56 µM (≈ 2.82 µg/mL) | 
CC(C)C[C@H](NC(=O)[C@H](CC(C)C)NC(=O)[C@H](CCCCN)NC(=O)[C@H](CC(C)C)NC(=O)[C@H](CC(C)C)NC(=O)[C@H](CCCCN)NC(=O)[C@H](CCCCN)NC(=O)[C@H](CC(C)C)NC(=O)[C@H](CC(C)C)NC(=O)[C@@H](N)CCCCNC(=O)[C@H](CCCCN)NC(=O)[C@H](CC(C)C)NC(=O)[C@H](CC(C)C)NC(=O)[C@H](CCCCN)NC(=O)[C@@H](N)CC(C)C)C(N)=O [Amp1EP6] (I: H-KLLKKLLKLL-NH2 / II: H-LKLLK; amide I:1-II:C) | 1.56 µM (≈ 2.82 µg/mL) | 1.56 µM (≈ 2.82 µg/mL) | 1.56 µM (≈ 2.82 µg/mL) | 
CC(C)C[C@H](NC(=O)[C@H](CC(C)C)NC(=O)[C@H](CCCCN)NC(=O)[C@H](CC(C)C)NC(=O)[C@H](CC(C)C)NC(=O)[C@H](CCCCN)NC(=O)[C@@H](N)CCCCNC(=O)[C@H](CC(C)C)NC(=O)[C@H](CC(C)C)NC(=O)[C@H](CCCCN)NC(=O)[C@H](CCCCN)NC(=O)[C@H](CC(C)C)NC(=O)[C@H](CC(C)C)NC(=O)[C@H](CCCCN)NC(=O)[C@@H](N)CC(C)C)C(N)=O [Amp1EP9] (H-LKLLKKLL[εLys]KLLKLL-NH2) | 6.25 µM (≈ 11.3 µg/mL) | 3.12 µM (≈ 5.63 µg/mL) | 3.12 µM (≈ 5.63 µg/mL) | 40%
CC(C)C[C@H](NC(=O)[C@H](CC(C)C)NC(=O)[C@H](CCCCN)NC(=O)[C@H](CC(C)C)NC(=O)[C@H](CC(C)C)NC(=O)[C@@H](N)CCCCNC(=O)[C@H](CCCCN)NC(=O)[C@H](CC(C)C)NC(=O)[C@H](CC(C)C)NC(=O)[C@H](CCCCN)NC(=O)[C@H](CCCCN)NC(=O)[C@H](CC(C)C)NC(=O)[C@H](CC(C)C)NC(=O)[C@H](CCCCN)NC(=O)[C@@H](N)CC(C)C)C(N)=O [Amp1EP10] (H-LKLLKKLLK[εLys]LLKLL-NH2) | 3.12 µM (≈ 5.63 µg/mL) | 3.12 µM (≈ 5.63 µg/mL) | 3.12 µM (≈ 5.63 µg/mL) | 
CC(C)C[C@H](NC(=O)[C@H](CC(C)C)NC(=O)[C@@H](N)CCCCNC(=O)[C@H](CC(C)C)NC(=O)[C@H](CC(C)C)NC(=O)[C@H](CCCCN)NC(=O)[C@H](CCCCN)NC(=O)[C@H](CC(C)C)NC(=O)[C@H](CC(C)C)NC(=O)[C@H](CCCCN)NC(=O)[C@H](CCCCN)NC(=O)[C@H](CC(C)C)NC(=O)[C@H](CC(C)C)NC(=O)[C@H](CCCCN)NC(=O)[C@@H](N)CC(C)C)C(N)=O [Amp1EP13] (H-LKLLKKLLKKLL[εLys]LL-NH2) | 1.56 µM (≈ 2.82 µg/mL) | 1.56 µM (≈ 2.82 µg/mL) | 1.56 µM (≈ 2.82 µg/mL) | 
CC(C)C[C@H](NC(=O)[C@H](CC(C)C)NC(=O)[C@H](CCCCN)NC(=O)[C@H](CC(C)C)NC(=O)[C@H](CC(C)C)NC(=O)[C@H](CCCCN)NC(=O)[C@H](CCCCN)NC(=O)[C@H](CC(C)C)NC(=O)[C@H](CC(C)C)NC(=O)[C@H](CCCCN)NC(=O)[C@H](CCCCN)NC(=O)[C@H](CC(C)C)NC(=O)[C@H](CC(C)C)NC(=O)[C@H](CCCCN)NC(=O)[C@@H](N)CC(C)C)C(N)=O [Amp1L, reference compound] (H-LKLLKKLLKKLLKLL-NH2) | 12.5 µM (≈ 22.6 µg/mL) | 12.5 µM (≈ 22.6 µg/mL) | 12.5 µM (≈ 22.6 µg/mL) | neither the parental peptide Amp1L nor any of the other modified peptides were detected
